One block for each compound: values may come before it.
Tests used:
[1] = system: 60 human tumor cell lines (NCI60); design: method as in PMID 39063170; conditions: previous work; cited from earlier work
non-tumor CHO cells = assay: CellTiter-Glo Luminescent Cell Viability Assay; type: cell-based, Chinese hamster; conditions: for IC50: Cricetulus griseus, 48 h treatment, read-out: IC50 (estimated)
Experimental: Conjugates 9b and 9e were selected based on their antitumor effects to be tested on non-tumor CHO cells in the CellTiter-Glo Luminescent Cell Viability Assay to investigate their potential selectivity for cancer cells. Following a 48 h treatment with the conjugates in the 0.10–10 µM concentration range, a concentration-dependent decrease in the luminescent signal was observed, indirectly representing the ATP production of living cells as an indicator of cell viability.
Conjugates 9b and 9e were dissolved in DMSO in 10 mM stock solutions and stored frozen until use. CHO cells were cultured in complete Dulbecco’s Modified Eagle’s Medium (DMEM, low glucose (1 g/L) supplemented with 10% fetal bovine serum, 1% Gibco GlutaMAX-I (100×) solution, 1% Gibco MEM non-essential amino acid solution (100×), and 0.1% penicillin–streptomycin mixture). The CellTiter-Glo Luminescent Cell Viability Assay (Promega Corporation, Madison, WI, USA) was performed as previously described. Cells were grown under standard cell culture conditions (37 °C, 5% CO2) and passaged at 70–80% confluency. According to the manufacturer’s protocol, CHO cells were seeded to opaque 96-well culture plates (5000 cells/100 µL complete DMEM/well) and the side rows and columns of the plate were filled with sterile phosphate-buffer saline to avoid artifacts. […] The luminescent signal was measured for each assay well with an EnSpire AlphaLisa microplate reader (Perkin Elmer, Inc., Waltham, MA, USA). […] Estimated IC50 values were calculated using non-linear regression by fitting a sigmoidal dose-response curve to the data points (log(inhibitor) vs. normalized response, variable slope, and least squares fit).
Statistical analysis (ANOVA) and estimation of IC50 values were performed in GraphPad Prism 8.0.1 (GraphPad, La Jolla, CA, USA). Estimated IC50 values were calculated using non-linear regression by fitting a sigmoidal dose-response curve to the data points (log(inhibitor) vs. normalized response, variable slope, least squares fit).

A2780 cells = assay: Wound healing migration assay; type: cell-based, human; conditions: A2780, sub-inhibitory concentrations (0.5 or 1.0 µM), 24 and 48 h
Experimental: The antimigratory properties of compound 9g were investigated using the in vitro wound healing assay against the ovarian cancer cell line A2780.
The effect of compound 9g on the migration of A2780 cells was assessed using a wound-healing assay. A2780 cells were trypsinized and seeded into specialized wound assay chambers (ibidi GmbH, Martinsried, Germany) at a density of 80,000 cells/insert and the plate was incubated under standard conditions to allow proper attachment. After incubation, the inserts were carefully removed and the wells were washed twice with PBS to eliminate non-adherent cells and debris. The cells were subsequently treated with […] at 0.5 or 1.0 µM in fresh medium containing 2% FBS. The migration of cells toward the wound site was visualized using a phase-contrast inverted microscope (Nikon Instruments Europe, Amstelveen, The Netherlands) and images were captured with a CCD camera (QImaging MicroPublisher Color RTV5.0 Teledyne Photometrics, Tucson, AZ, USA). The percentage of cell migration was calculated at different time intervals (0, 24, and 48 h) by measuring the cell-free area in treated samples against untreated controls using ImageJ software 1.54d (National Institutes of Health, Bethesda, MD, USA). The experiments were conducted twice with at least three parallel samples.

MCF-7 = assay: MTT antiproliferative assay; type: cell-based, human
Experimental: (§1) The antiproliferative properties of the tested compounds were additionally determined using the MTT assay against a panel of human adherent cancer cell lines isolated from breast (MCF-7 and MDA-MB-231), cervical (HeLa and SiHa), and ovarian (A2780) tumors and also on the NIH/3T3 fibroblast cell line (Table 3). IC50 values were calculated from a wider concentration range (0.1–30 μM) when higher than 50% cell growth inhibition was obtained at 10 μM (Table 4). Cisplatin was used as a reference compound. […] The noncancerous fibroblast cell line NIH/3T3 was used to gather preliminary data regarding the cancer selectivity of vindolin derivatives. […] The tumor selectivity of compound 9g, expressed as the ratio of IC50 on cancer cells and fibroblasts, is substantially higher than that of cisplatin (Table 4).
(§2) The antiproliferative effects of the prepared derivatives were evaluated in vitro using the MTT assay against a panel of human adherent cancer cell lines, including breast (MDA-MB-231, MCF-7), cervical (SiHa, HeLa), and ovarian (A2780) cancer cells. The noncancerous fibroblast cell line NIH/3T3 was included to obtain data concerning the tumor selectivity of the test substances. All cell lines were sourced from the European Collection of Cell Cultures (Salisbury, UK), except for SiHa (American Tissue Culture Collection (Manassas, VA, USA). All cell lines were maintained in Eagle’s Minimal Essential Medium (EMEM) supplemented with 10% fetal bovine serum (FBS), 1% non-essential amino acids, and a mixture of penicillin, streptomycin, and amphotericin B. The cells were maintained in a humidified atmosphere containing 5% CO2 at 37 °C. The media and the cell culture supplements were procured from Capricorn Scientific Ltd. (Ebsdorfergrund, Germany). Cells were seeded into 96-well microplates at 5000/well and, the next day, treated with vindoline derivatives at two concentrations (10 or 30 μM) for 72 h under cell culturing conditions. […] When higher than 50% cell growth inhibition was observed, the assay was repeated using a wide concentration range (0.1–30 μM). The IC50 values were calculated using GraphPad Prism software 10.3.1 (GraphPad Software, San Diego, CA, USA). Two independent experiments were performed with at least five replicates per condition.

[2] = system: panel of human adherent cancer cell lines; assay: MTT antiproliferative assay, whole cancer panel; type: cell-based; conditions: Homo sapiens
Experimental: as §1, §2

Compound: CCC12C=CCN3CC[C@@]4(c5ccc(OC)cc5N(C)[C@H]4[C@@](O)(C(=O)OC)[C@@H]1OC(C)=O)[C@@H]32 (some centres unmarked) [compound 2, vindoline]
antiproliferative effects (in words) [1]: do not exert antiproliferative effects

Compound: CC[C@]12C=CCN3CC[C@@]4(c5ccc(OC)cc5N(C)[C@H]4[C@@](O)(C(=O)OC)[C@@H]1OC(=O)CCC[P+](c1cc(C)c(OC)c(C)c1)(c1cc(C)c(OC)c(C)c1)c1cc(C)c(OC)c(C)c1)[C@@H]32 [9e]
decrease in viability (non-tumor CHO cells; 1.0 µM, 48 h): 26.4 ± 5.8% | IC50 (non-tumor CHO cells): 1360 nM

Compound: CC[C@]12C=CCN3CC[C@@]4(c5ccc(OC)cc5N(C)[C@H]4[C@@](O)(C(=O)OC)[C@@H]1OC(=O)CCC[P+](c1ccc(OC)cc1)(c1ccc(OC)cc1)c1ccc(OC)cc1)[C@@H]32 [9b]
IC50 (non-tumor CHO cells): 2980 nM

IC50 (MCF-7; Homo sapiens, MCF7, MCF-7, MTT, 72 h, read-out: IC50 Value (μM) ± SEM): 2.56 ± 0.1 µM | IC50 ([2]; range over the cancer cells): 1500 to 6480 nM
Compound: CC[C@]12C=CCN3CC[C@@]4(c5ccc(OC)cc5N(C)[C@H]4[C@@](O)(C(=O)OC)[C@@H]1OC(=O)CCC[P+](c1ccccc1)(c1ccccc1)c1ccccn1)[C@@H]32 [9g]
cell migration (A2780 cells): concentration- and duration-dependent reduction in cell migration | inhibition at 10 µM (MCF-7; Homo sapiens, MCF7, MCF-7, 10 μM, 72 h, read-out: Growth Inhibition (%) ± SEM): 81.9 ± 0.84% | inhibition at 30 µM (MCF-7; Homo sapiens, MCF7, MCF-7, 30 μM, 72 h, read-out: Growth Inhibition (%) ± SEM (converted)): 89.9% | Selectivity Ratio (MCF-7; ratio of IC50 on MCF-7 cells and NIH/3T3 fibroblasts): 0.18 | inhibition at 10 µM ([2]; 10 μM, against all tested cancer cells, read-out: cell growth inhibition): > 60%
